Reference: US20250163104A1, “MACROCYCLIC IMMUNOMODULATORS” (priority 2021, published 2025)
pIC50: −log10 of the molar value. Where a SMILES comes first, the peptide text is derived from it. Bridges are numbered along the chain shown (N, C = ends). [ ]: non-standard residue; d: D form. The star is where a group is joined. ξ: configuration not given here. Bip = N[C@@H](Cc1ccc(-c2ccccc2)cc1)C(=O)O; Phe(3-OMe) = COc1cccc(C[C@H](N)C(=O)O)c1; Phe(4-CN) = N#Cc1ccc(C[C@H](N)C(=O)O)cc1; Phe(3-Me) = Cc1cccc(C[C@H](N)C(=O)O)c1; Gla = N[C@@H](CC(C(=O)O)C(=O)O)C(=O)O; Phe(2-F) = N[C@@H](Cc1ccccc1F)C(=O)O; Val(3-OH) = CC(C)(O)[C@H](N)C(=O)O; 4Pal = N[C@@H](Cc1ccncc1)C(=O)O; Cha = N[C@@H](CC1CCCCC1)C(=O)O; Cit = NC(=O)NCCC[C@H](N)C(=O)O; Thr(3ξ) = CC(O)[C@H](N)C(=O)O; Chg = N[C@H](C(=O)O)C1CCCCC1; Carboxymethyl = O=C(O)C*; Nle = CCCC[C@H](N)C(=O)O; Orn = NCCC[C@H](N)C(=O)O; Pra = C#CC[C@H](N)C(=O)O; Dab = NCC[C@H](N)C(=O)O; Nva = CCC[C@H](N)C(=O)O; Dap = NC[C@H](N)C(=O)O; Propargyl = C#CC*

Target: T1, human PD-1 / PD-L1-Ig binding on Jurkat cell line over-expressing human PD-1 (Jurkat-PD-1) (Homo sapiens, UniProt Q15116)
T1 construct: expressed in transfected cells; host or cells: Jurkat
T1 sequence (Q15116 25-288): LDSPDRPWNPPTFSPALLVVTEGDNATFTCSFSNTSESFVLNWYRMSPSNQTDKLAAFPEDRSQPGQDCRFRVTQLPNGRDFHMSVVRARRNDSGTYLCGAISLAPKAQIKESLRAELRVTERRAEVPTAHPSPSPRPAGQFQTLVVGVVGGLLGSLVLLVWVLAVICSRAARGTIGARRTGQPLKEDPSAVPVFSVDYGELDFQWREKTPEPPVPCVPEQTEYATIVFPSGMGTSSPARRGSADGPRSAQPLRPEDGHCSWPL
Experiment: Jurkat-PD-1 Cell Binding High-Content Screening Assay (CBA)
Format: cell-based
Settings: Jurkat-PD-1 cells, PE-labeled PD-L1-Ig 20 nM final; read-out: Jurkat HPD1_PDL1 IC50
Summary of the method: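 Cell-bound PE-labeled PD-L1-Ig (20 nM final, 1 h) measured by high-content imaging after fixation and Hoechst 33342 counterstain. Compound was applied first for 2 h at 37° C. to Jurkat cells over-expressing human PD-1 in DMEM with 10% FCS.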

SMILES	pIC50
CC(C)C[C@H]1NC(=O)[C@H](CCCN)NC(=O)[C@H](CCC(=O)O)NC(=O)[C@H](Cc2ccc(-c3ccccc3)cc2)NC(=O)[C@H](C(C)C)NC(=O)[C@H](Cc2ccccc2F)NC(=O)[C@H](CC(=O)O)NC(=O)[C@H](Cc2ccc(C#N)cc2)NC(=O)[C@H](CC(N)=O)NC(=O)CSC[C@@H](C(=O)N[C@@H](C)C(N)=O)NC(=O)[C@H]([C@@H](C)O)NC(=O)[C@H](C(C)C)NC(=O)[C@H](CC2CCCCC2)NC(=O)[C@H](CCN)NC1=O [Compound 2212] ({CH2CO}-N[Phe(4-CN)]D[Phe(2-F)]V[Bip]E[Orn][dL][Dab][Cha]VTCA-NH2; thioether N-14)	7.42
C#CC[C@H](NC(=O)[C@@H]1CSCC(=O)N[C@@H](CCC)C(=O)N[C@@H](Cc2ccc(OCC(=O)O)cc2)C(=O)N[C@@H](CC(=O)O)C(=O)N[C@@H](Cc2cccc(C)c2)C(=O)N[C@@H](Cc2ccc(OCC(=O)O)cc2)C(=O)N[C@@H](Cc2ccc(-c3ccccc3)cc2)C(=O)N[C@@H](Cc2ccc(OCC(=O)O)cc2)C(=O)N[C@@H](CCCN)C(=O)N[C@H](CC(C)C)C(=O)N[C@@H](CCC)C(=O)N[C@@H](CC2CCCCC2)C(=O)N[C@@H](C(C)C)C(=O)N[C@@H](CCC(=O)O)C(=O)N1)C(=O)O [Compound 2701] ({CH2CO}-[Nva]Y(Carboxymethyl)D[Phe(3-Me)]Y(Carboxymethyl)[Bip]Y(Carboxymethyl)[Orn][dL][Nva][Cha]VEC[Pra]-OH; thioether N-14)	6.79
CC(C)C[C@H]1NC(=O)[C@H](CCCN)NC(=O)[C@H](CCCNC(N)=O)NC(=O)[C@H](Cc2ccc(-c3ccccc3)cc2)NC(=O)[C@H](C(C)C)NC(=O)[C@H](Cc2c[nH]c3ccccc23)NC(=O)[C@H](CC(=O)O)NC(=O)[C@H](CC(C(=O)O)C(=O)O)NC(=O)[C@H](CN)NC(=O)CSC[C@@H](C(=O)N[C@@H](C)C(N)=O)NC(=O)[C@H]([C@@H](C)O)NC(=O)[C@H](C(C)C)NC(=O)[C@H](CC2CCCCC2)NC(=O)[C@H](CCN)NC1=O [Compound 2134] ({CH2CO}-[Dap][Gla]DWV[Bip][Cit][Orn][dL][Dab][Cha]VTCA-NH2; thioether N-14)	6.44
Cc1cccc(C[C@@H]2NC(=O)[C@H](CC(=O)O)NC(=O)[C@H](Cc3ccc(OCC(=O)O)cc3)NC(=O)[C@H](Cc3cnc[nH]3)NC(=O)CSC[C@@H](C(=O)N[C@H](C)C(N)=O)NC(=O)[C@H](C(C)O)NC(=O)[C@H](C(C)(C)O)NC(=O)[C@H](CC3CCCCC3)NC(=O)[C@H](CCN)NC(=O)[C@@H](CC(C)C)NC(=O)[C@H](CCCN)NC(=O)[C@H](Cc3ccc(OCC(=O)O)cc3)NC(=O)[C@H](Cc3ccc(-c4ccccc4)cc3)NC(=O)[C@H](Cc3ccc(OCC(=O)O)cc3)NC2=O)c1 (stereo partly drawn) [Compound 2650] ({CH2CO}-HY(Carboxymethyl)D[Phe(3-Me)]Y(Carboxymethyl)[Bip]Y(Carboxymethyl)[Orn][dL][Dab][Cha][Val(3-OH)][Thr(3ξ)]C[dA]-NH2; thioether N-14)	7.41
CC[C@H](C)[C@@H]1NC(=O)[C@H](Cc2ccc(-c3ccccc3)cc2)NC(=O)[C@H](C2CCCCC2)NC(=O)[C@H](Cc2c[nH]c3ccccc23)NC(=O)[C@H](CC(=O)O)NC(=O)[C@H](Cc2ccc(OCC(=O)O)cc2)NC(=O)[C@H](CN)NC(=O)CSC[C@@H](C(=O)N[C@@H](C)C(N)=O)NC(=O)[C@H]([C@@H](C)O)NC(=O)[C@H](C(C)C)NC(=O)[C@H](CC2CCCCC2)NC(=O)[C@H](CCN)NC(=O)[C@@H](CC(C)C)NC(=O)[C@H](CCCN)NC1=O [Compound 1722] ({CH2CO}-[Dap]Y(Carboxymethyl)DW[Chg][Bip]I[Orn][dL][Dab][Cha]VTCA-NH2; thioether N-14)	7.56

These reach a higher pIC50. Values come first.

pIC50	SMILES
7.93	Cc1cccc(C[C@@H]2NC(=O)[C@H](CC(=O)O)NC(=O)[C@H](Cc3ccc(OCC(=O)O)cc3)NC(=O)[C@H](Cc3ccncc3)NC(=O)CSC[C@@H](C(=O)N[C@@H](CCN)C(N)=O)NC(=O)[C@H](CO)NC(=O)[C@H](C(C)(C)O)NC(=O)[C@H](CC3CCCCC3)NC(=O)[C@H](Cc3cnc[nH]3)NC(=O)[C@@H](CC(C)C)NC(=O)[C@H](CCCN)NC(=O)[C@H](Cc3ccc(OCC(=O)O)cc3)NC(=O)[C@H](Cc3ccc(-c4ccccc4)cc3)NC(=O)[C@H](Cc3ccc(OCC(=O)O)cc3)NC2=O)c1 [Compound 2645] ({CH2CO}-[4Pal]Y(Carboxymethyl)D[Phe(3-Me)]Y(Carboxymethyl)[Bip]Y(Carboxymethyl)[Orn][dL]H[Cha][Val(3-OH)]SC[Dab]-NH2; thioether N-14)
8.59	C#CCOc1ccc(C[C@@H]2NC(=O)[C@H](Cc3cccc(C)c3)NC(=O)[C@H](CC(=O)O)NC(=O)[C@H](Cc3ccc(OCC(=O)O)cc3)NC(=O)[C@H](CCC)NC(=O)CSC[C@@H](C(=O)N[C@@H](CCN)C(N)=O)NC(=O)[C@H](CCC(=O)O)NC(=O)[C@H](C(C)C)NC(=O)[C@H](CC3CCCCC3)NC(=O)[C@H](CCN)NC(=O)[C@@H](CC(C)C)NC(=O)[C@H](CCCN)NC(=O)[C@H](Cc3ccc(OCC(=O)O)cc3)NC(=O)[C@H](Cc3ccc(-c4ccccc4)cc3)NC2=O)cc1 [Compound 1832] ({CH2CO}-[Nva]Y(Carboxymethyl)D[Phe(3-Me)]Y(Propargyl)[Bip]Y(Carboxymethyl)[Orn][dL][Dab][Cha]VEC[Dab]-NH2; thioether N-14)
8.10	COc1cccc(C[C@@H]2NC(=O)[C@H](CC(=O)O)NC(=O)[C@H](Cc3ccc(OCC(=O)O)cc3)NC(=O)[C@H](Cc3ccncc3)NC(=O)CSC[C@@H](C(=O)N[C@@H](C)C(N)=O)NC(=O)[C@H]([C@@H](C)O)NC(=O)[C@H](C(C)C)NC(=O)[C@H](CC(C)C)NC(=O)[C@H](CCN)NC(=O)[C@@H](CC(C)C)NC(=O)[C@H](CCCN)NC(=O)[C@H](C(C)C)NC(=O)[C@H](Cc3ccc(-c4ccccc4)cc3)NC(=O)[C@H](C(C)C)NC2=O)c1 [Compound 1188] ({CH2CO}-[4Pal]Y(Carboxymethyl)D[Phe(3-OMe)]V[Bip]V[Orn][dL][Dab]LVTCA-NH2; thioether N-14)
7.59	Cc1cccc(C[C@@H]2NC(=O)[C@H](CC(=O)O)NC(=O)[C@H](Cc3ccc(OCC(=O)O)cc3)NC(=O)[C@H](Cc3cccnc3)NC(=O)CSC[C@@H](C(=O)N[C@@H](C)C(N)=O)NC(=O)[C@H]([C@@H](C)O)NC(=O)[C@H](C(C)C)NC(=O)[C@H](CC3CCCCC3)NC(=O)[C@H](Cc3cnc[nH]3)NC(=O)[C@@H](CC(C)C)NC(=O)[C@H](CCCN)NC(=O)[C@H](C(C)C)NC(=O)[C@H](Cc3ccc(-c4ccccc4)cc3)NC(=O)[C@H](C(C)C)NC2=O)c1 [Compound 1587]
7.88	CCCC[C@@H]1NC(=O)[C@H](Cc2c[nH]c3ccccc23)NC(=O)[C@H](CC(=O)O)NC(=O)[C@H](Cc2ccc(OCC(=O)O)cc2)NC(=O)[C@H](CN)NC(=O)CSC[C@@H](C(=O)N[C@@H](C)C(N)=O)NC(=O)[C@H]([C@@H](C)O)NC(=O)[C@H](C(C)C)NC(=O)[C@H](CC2CCCCC2)NC(=O)[C@H](CCN)NC(=O)[C@@H](CC(C)C)NC(=O)[C@H](CCCN)NC(=O)[C@H]([C@@H](C)CC)NC(=O)[C@H](Cc2ccc(-c3ccccc3)cc2)NC1=O [Compound 1726] ({CH2CO}-[Dap]Y(Carboxymethyl)DW[Nle][Bip]I[Orn][dL][Dab][Cha]VTCA-NH2; thioether N-14)
